{
  "source": "patent US20180193472A1",
  "about": "“TRANSPORT PEPTIDES FOR TRANSCELLULAR DELIVERY OF BIOLOGICAL AND THERAPEUTIC AGENTS” (priority 2017, published 2018)",
  "key": {"[1]": {"system": "monolayer of MDCKII cells", "test": "Transwell apparent permeability (Papp) across a monolayer of MDCKII cells grown on a porous membrane", "type": "in vitro ADME, canine", "procedure": "(§1) The transport peptides of the present invention were identified by modifying peptide sequences and testing these peptides in a Transwell assay measuring in vitro transcellular transport. The Transwell assay consists of two chambers separated from each other by a permeable porous membrane. Cells, most commonly canine kidney epithelial MDCK cells or human intestinal epithelial Caco-2 cells, are grown on the membrane and represent a model biological barrier. The drug, or peptide of interest, is added to the input chamber and the concentration in the receiver chamber is measured after a period of time. The rate at which the drug or peptide permeates across the cells (and the porous membrane) is the rate of drug's concentration increase in the receiver chamber after a period of time. The rate can be calculated and expressed in terms of apparent permeability (Papp), which takes into account the input concentration, the rate of concentration increase in the receiver well, solution volume in the receiver well, and the area of the cell monolayer. Substances with low permeability generally have Papp values on the order of 10^−7 cm/s, and substances with high permeabilities generally have Papp values on the order of 10^−5 cm/s or higher. There are several published reports where the CPPs were investigated for their ability to deliver cargo transcellularly using a Transwell assay: Violini et al reported low permeabilities of 3.1×10^−8 cm/s and 7.4×10^−8 cm/s for TC-radiolabeled Tat 48-57 across Caco-2 and MDCK II cells, respectively.\n(§2) The apparent permeabilities (Papp) of four compounds were determined across a monolayer of MDCKII cells, grown on a porous membrane. The four compounds were the following and are represented in FIGS. 2-3: 1) a transport peptide of the present invention, CL, attached to 5-Carboxyfluorescein (MW: 376.3) and designated as [5-FAM]CL peptide, 2) 5-Carboxyfluorescein attached to H3R8 ([5-FAM] H3R8 MW: 2,263.5 and the H3R8 peptide is shown in FIG. 4b) 3) 5-Carboxyfluorescein designated as 5-FAM and 4) Lucifer Yellow designated as LY (MW:457.25, Product Number L-453, Life Technologies). The following concentrations of [5-FAM] CL, [5-FAM] H3R8, 5-FAM, and LY compound were applied to the monolayer of MDCKII cells at approximately 0.2 μM, 0.4-0.9 μM, 4 μM, and 100 μM, respectively. The peptides and dyes were resuspended in HEPES- and glucose-supplemented 1×HBSS buffer. The permeability experiments were conducted for 1 hour at 37° C. Error bars represent standard error (SE). CL and H3R8 are conjugated to 5-FAM at the N-termini. H3R8 is based on oligoarginine CPPs that has been reported to deliver cargo intracellularly. LY is used to assess monolayer integrity (Papp≤10̂−6 cm/s verifies monolayer integrity). The permeability of LY is on the order of 10̂−7 cm/s and is thus consistent with literature values for a monolayer with good barrier properties. [5-FAM]"}, "[2]": {"system": "monolayer of MDCKII cells", "type": "cell-based, canine", "excerpt": "The inventors identified cationic transport peptides that are capable of transcellular delivery of cargo across a monolayer of MDCKII cells grown on a porous membranes. One embodiment of the invention is a CL peptide, conjugated to a fluorescent dye 5-FAM (fluorescein), has a Papp value of (1.3±0.2)×10^−5 cm/s, which approaches the permeability rates of the fast-permeating molecules into the brain (Papp ≈10^−5 to 10^−4 cm/s). The CL peptide, conjugated to 5-FAM, enhanced 30-fold the rate of permeation of 5-FAM across the biological barrier. This is especially significant because MDCKII cells are virtually impermeable to 5-FAM (Papp=(4.1±0.6)×10^−7 cm/s) unless it is conjugated to the novel peptide. In addition, the CL peptide was able to deliver 5-FAM without compromising the junctional integrity of the model cell monolayer. Junctional integrity of the monolayer can be measured by transepithelial electrical resistance (TEER), which signifies resistance to the flow of ions across a cell monolayer. If the tight junctions between the cells are compromised, the TEER decreases.\nFIG. 3 illustrates the % TEER change in the monolayer of MDCKII cells. Error bars represent SD with n=3 for all except LY, n=6. […] CL and [5-FAM] […] The data indicates the high permeability rates, observed for a transport peptide of the present invention, [5-FAM] […]"}, "[3]": {"test": "Transwell apparent permeability (Papp) across a monolayer of MDCKII cells grown on a porous membrane", "type": "in vitro ADME, canine", "details": "MDCK", "procedure": "as §1, §2"}},
  "note": "Where a SMILES comes first, the peptide text is derived from it. Where no end group is shown, it is not given here. The star is where a group is joined. 5FAM = O=C1OC2(c3ccc(O)cc3Oc3cc(O)ccc32)c2ccc(C(=O)*)cc21",
  "data": [
    {"compound": "Lucifer Yellow [LY]", "values": [
      {"measurement": "apparent permeability (Papp)", "setting": "[1]; MDCK", "value": "~10̂−7 cm/s"}
    ]},
    {"compound": "KGRLLRLLRRRRRRRR [CL peptide]", "values": [
      {"measurement": "% TEER change after the permeability experiment", "setting": "[2]", "value": "did not significantly affect the TEER"}
    ]},
    {"compound": "HHHRRRRRRRR [H3R8]", "values": [
      {"measurement": "ability to deliver 5-FAM across a monolayer of MDCKII cells", "setting": "[1]; MDCK", "value": "not capable to deliver 5-FAM across a monolayer of MDCKII cells"}
    ]},
    {"compound": "O=C(O)c1ccc2c(c1)C(=O)OC21c2ccc(O)cc2Oc2cc(O)ccc21", "note": "[5-FAM, 5-Carboxyfluorescein]", "values": [
      {"measurement": "apparent permeability (Papp)", "setting": "[1]; monolayer of MDCKII cells on porous membrane, 1 hour at 37° C, HEPES- and glucose-supplemented 1×HBSS", "value": "(4.1±0.6)×10^−7 cm/s"}
    ]},
    {"compound": "CC(=O)N[C@@H](CCCCNC(=O)c1ccc2c(c1)C(=O)OC21c2ccc(O)cc2Oc2cc(O)ccc21)C(=O)NCC(=O)N[C@@H](CCCNC(=N)N)C(=O)N[C@@H](CC(C)C)C(=O)N[C@@H](CC(C)C)C(=O)N[C@@H](CCCNC(=N)N)C(=O)N[C@@H](CC(C)C)C(=O)N[C@@H](CC(C)C)C(=O)N[C@@H](CCCNC(=N)N)C(=O)N[C@@H](CCCNC(=N)N)C(=O)N[C@@H](CCCNC(=N)N)C(=O)N[C@@H](CCCNC(=N)N)C(=O)N[C@@H](CCCNC(=N)N)C(=O)N[C@@H](CCCNC(=N)N)C(=O)N[C@@H](CCCNC(=N)N)C(=O)N[C@@H](CCCNC(=N)N)C(N)=O", "note": "[[5-FAM] CL] (Ac-K(5FAM)GRLLRLLRRRRRRRR-NH2; N-terminus and C-terminus assumed)", "values": [
      {"measurement": "% TEER change after the permeability experiment", "setting": "[2]", "value": "did not result in a significant % TEER decrease"},
      {"measurement": "enhancement of the rate of permeation (Papp) relative to 5-FAM", "setting": "[1]; MDCK", "value": 30, "unit": "fold"},
      {"measurement": "Papp", "setting": "[3]", "value": 130, "unit": "nm/s"}
    ]}
  ]
}
